Test results taken from patent publication US10004701B2, “Methods and compositions for treating infection” (UNIVERSITY OF ROCHESTER, priority 2012, dated 2018).
Where a name gives a salt, the structure may show the parent alone. Read-outs that look alike come from different tables or passages of the source.

Assays:
Experiment in all cases: AK assay 384-well format, Prestwick library screening
E. faecium = format: cell-based, Enterococcus faecium; conditions: Enterococcus faecium, 3 h, 50 μM final drug concentration
[1] = test system: S. aureus strain USA300-0114; format: cell-based, Staphylococcus aureus; conditions: Staphylococcus aureus, USA300, 3 h, 50 μM final drug concentration
K. pneumoniae = format: cell-based, Klebsiella pneumoniae; conditions: Klebsiella pneumoniae, 3 h, 50 μM final drug concentration
[2] = test system: A. baumannii strain 98-37-09; format: cell-based, Acinetobacter baumannii; conditions: Acinetobacter baumannii, 983709, 3 h, 50 μM final drug concentration
P. aeruginosa = format: cell-based, Pseudomonas aeruginosa; conditions: Pseudomonas aeruginosa, 3 h, 50 μM final drug concentration
E. cloacae = format: cell-based, Enterobacter cloacae; conditions: Enterobacter cloacae, 3 h, 50 μM final drug concentration
E. coli = format: cell-based, Escherichia coli; conditions: Escherichia coli, 3 h, 50 μM final drug concentration
[3] = planktonic, cutoff for positive 3-fold increase, read-out: AK-based Prestwick Library Screening Results, E. faecium (fold increase in extracellular AK activity)
[4] = planktonic, cutoff for positive 3-fold increase, read-out: AK-based Prestwick Library Screening Results, S. aureus (fold increase in extracellular AK activity)
[5] = planktonic, cutoff for positive 3-fold increase, read-out: AK-based Prestwick Library Screening Results, K. pneumoniae (fold increase in extracellular AK activity)
[6] = planktonic, cutoff for positive 3-fold increase, read-out: AK-based Prestwick Library Screening Results, A. baumannii (fold increase in extracellular AK activity)
[7] = planktonic, cutoff for positive 3-fold increase, read-out: AK-based Prestwick Library Screening Results, P. aeruginosa (fold increase in extracellular AK activity)
[8] = planktonic, cutoff for positive 3-fold increase, read-out: AK-based Prestwick Library Screening Results, E. cloacae (fold increase in extracellular AK activity)
[9] = planktonic, cutoff for positive 3-fold increase, read-out: AK-based Prestwick Library Screening Results, E. coli (fold increase in extracellular AK activity)
[10] = planktonic E. faecium, positive cutoff 3-fold increase, read-out: AK-based Prestwick library screening result, E. faecium (fold increase in extracellular AK activity)
[11] = planktonic S. aureus, positive cutoff 3-fold increase, read-out: AK-based Prestwick library screening result, S. aureus (fold increase in extracellular AK activity)
[12] = planktonic K. pneumoniae, positive cutoff 3-fold increase, read-out: AK-based Prestwick library screening result, K. pneumoniae (fold increase in extracellular AK activity)
[13] = planktonic A. baumannii, positive cutoff 3-fold increase, read-out: AK-based Prestwick library screening result, A. baumannii (fold increase in extracellular AK activity)
[14] = planktonic P. aeruginosa, positive cutoff 3-fold increase, read-out: AK-based Prestwick library screening result, P. aeruginosa (fold increase in extracellular AK activity)
[15] = planktonic E. cloacae, positive cutoff 3-fold increase, read-out: AK-based Prestwick library screening result, E. cloacae (fold increase in extracellular AK activity)
[16] = planktonic E. coli, positive cutoff 3-fold increase, read-out: AK-based Prestwick library screening result, E. coli (fold increase in extracellular AK activity)

Compound `CC(=O)O[C@]1(C(C)=O)CC[C@H]2[C@@H]3C=C(C)C4=CC(=O)CC[C@]4(C)[C@H]3CC[C@@]21C` [Megestrol acetate] has a fold induction at 50 µM (E. faecium; cutoff for positive-scoring molecules 3-fold increase, read-out: AK-based Prestwick Library Screening Results, E. faecium (fold increase in extracellular AK activity)) of 1.2, a fold induction at 50 µM ([1]; cutoff for positive-scoring molecules 3-fold increase, read-out: AK-based Prestwick Library Screening Results, S. aureus (fold increase in extracellular AK activity)) of 0.9 and a fold induction at 50 µM (K. pneumoniae; cutoff for positive-scoring molecules 3-fold increase, read-out: AK-based Prestwick Library Screening Results, K. pneumoniae (fold increase in extracellular AK activity)) of 1. The fold induction at 50 µM ([2]; cutoff for positive-scoring molecules 3-fold increase, read-out: AK-based Prestwick Library Screening Results, A. baumannii (fold increase in extracellular AK activity)) was 1.2, the fold induction at 50 µM (P. aeruginosa; cutoff for positive-scoring molecules 3-fold increase, read-out: AK-based Prestwick Library Screening Results, P. aeruginosa (fold increase in extracellular AK activity)) was 1.2 and the fold induction at 50 µM (E. cloacae; cutoff for positive-scoring molecules 3-fold increase, read-out: AK-based Prestwick Library Screening Results, E. cloacae (fold increase in extracellular AK activity)) was 1.6. It also gave a fold induction at 50 µM (E. coli; cutoff for positive-scoring molecules 3-fold increase, read-out: AK-based Prestwick Library Screening Results, E. coli (fold increase in extracellular AK activity)) of 1.1.
`CNC[C@H](O)[C@@H](O)[C@H](O)[C@H](O)CO` [Meglumine] was tested, and the fold induction at 50 µM (E. faecium; planktonic, […], read-out: AK-based Prestwick Library Screening Results, E. faecium (fold increase in extracellular AK activity)) was 0.8, the fold induction at 50 µM ([1]; planktonic, […], read-out: AK-based Prestwick Library Screening Results, S. aureus (fold increase in extracellular AK activity)) was 0.5 and the fold induction at 50 µM (K. pneumoniae; planktonic, […], read-out: AK-based Prestwick Library Screening Results, K. pneumoniae (fold increase in extracellular AK activity)) was 0.7. For the same compound, the fold induction at 50 µM ([2]; planktonic, […], read-out: AK-based Prestwick Library Screening Results, A. baumannii (fold increase in extracellular AK activity)) was 0.5, the fold induction at 50 µM (P. aeruginosa; planktonic, […], read-out: AK-based Prestwick Library Screening Results, P. aeruginosa (fold increase in extracellular AK activity)) was 0.5 and the fold induction at 50 µM (E. cloacae; planktonic, […], read-out: AK-based Prestwick Library Screening Results, E. cloacae (fold increase in extracellular AK activity)) was 0.6. The fold induction at 50 µM (E. coli; planktonic, […], read-out: AK-based Prestwick Library Screening Results, E. coli (fold increase in extracellular AK activity)) was 0.5.
For `COc1ccc2[nH]cc(CCNC(C)=O)c2c1` [Melatonin], the fold induction at 50 µM (E. faecium; [3]) was 1, the fold induction at 50 µM [1, 4] was 1.3 and the fold induction at 50 µM (K. pneumoniae; [5]) was 0.8. For the same compound, the fold induction at 50 µM [2, 6] was 1.2, the fold induction at 50 µM (P. aeruginosa; [7]) was 1.1 and the fold induction at 50 µM (E. cloacae; [8]) was 1.4. The fold induction at 50 µM (E. coli; [9]) was 0.9.
Compound `Cc1cnc(NC(=O)C2=C(O)c3ccccc3S(=O)(=O)N2C)s1` [Meloxicam] has a fold induction at 50 µM (E. faecium; planktonic E. faecium, cutoff for positive-scoring molecules 3-fold increase, read-out: AK-based Prestwick Library Screening Results, E. faecium (increase in extracellular AK activity)) of 0.9, a fold induction at 50 µM ([1]; planktonic S. aureus, cutoff for positive-scoring molecules 3-fold increase, read-out: AK-based Prestwick Library Screening Results, S. aureus (increase in extracellular AK activity)) of 2 and a fold induction at 50 µM (K. pneumoniae; planktonic K. pneumoniae, cutoff for positive-scoring molecules 3-fold increase, read-out: AK-based Prestwick Library Screening Results, K. pneumoniae (increase in extracellular AK activity)) of 0.8. The fold induction at 50 µM ([2]; planktonic A. baumannii, cutoff for positive-scoring molecules 3-fold increase, read-out: AK-based Prestwick Library Screening Results, A. baumannii (increase in extracellular AK activity)) was 0.9, the fold induction at 50 µM (P. aeruginosa; planktonic P. aeruginosa, cutoff for positive-scoring molecules 3-fold increase, read-out: AK-based Prestwick Library Screening Results, P. aeruginosa (increase in extracellular AK activity)) was 0.9 and the fold induction at 50 µM (E. cloacae; planktonic E. cloacae, cutoff for positive-scoring molecules 3-fold increase, read-out: AK-based Prestwick Library Screening Results, E. cloacae (increase in extracellular AK activity)) was 1.2. The fold induction at 50 µM (E. coli; planktonic E. coli, cutoff for positive-scoring molecules 3-fold increase, read-out: AK-based Prestwick Library Screening Results, E. coli (increase in extracellular AK activity)) was 1.
For `CC12CC3CC(C)(C1)CC(N)(C3)C2` [Memantine Hydrochloride], the fold induction at 50 µM (E. faecium; [10]) was 0.9, the fold induction at 50 µM [1, 11] was 0.6 and the fold induction at 50 µM (K. pneumoniae; [12]) was 0.5. For the same compound, the fold induction at 50 µM [2, 13] was 0.7, the fold induction at 50 µM (P. aeruginosa; [14]) was 0.6 and the fold induction at 50 µM (E. cloacae; [15]) was 0.7. It also gave a fold induction at 50 µM (E. coli; [16]) of 0.6.
Work on `CC1=CC(=O)c2ccccc2C1=O` [Menadione] yielded a fold induction at 50 µM (E. faecium; [3]) of 1.1, a fold induction at 50 µM [1, 4] of 1.4 and a fold induction at 50 µM (K. pneumoniae; [5]) of 1. It also gave a fold induction at 50 µM [2, 6] of 1, a fold induction at 50 µM (P. aeruginosa; [7]) of 1.2 and a fold induction at 50 µM (E. cloacae; [8]) of 1.5. For the same compound, the fold induction at 50 µM (E. coli; [9]) was 1.
In the case of `C[N+]1(C)CCCC(OC(=O)C(O)(c2ccccc2)c2ccccc2)C1` (stereo not shown) [Mepenzolate bromide], the fold induction at 50 µM (E. faecium; planktonic, cutoff for positive-scoring molecules 3-fold increase, read-out: AK-based Prestwick Library Screening Results, E. faecium (fold increase in extracellular AK activity)) is reported as 1, the fold induction at 50 µM ([1]; planktonic, cutoff for positive-scoring molecules 3-fold increase, read-out: AK-based Prestwick Library Screening Results, S. aureus (fold increase in extracellular AK activity)) is reported as 0.6 and the fold induction at 50 µM (K. pneumoniae; planktonic, cutoff for positive-scoring molecules 3-fold increase, read-out: AK-based Prestwick Library Screening Results, K. pneumoniae (fold increase in extracellular AK activity)) is reported as 0.6. The fold induction at 50 µM ([2]; planktonic, cutoff for positive-scoring molecules 3-fold increase, read-out: AK-based Prestwick Library Screening Results, A. baumannii (fold increase in extracellular AK activity)) was 0.7, the fold induction at 50 µM (P. aeruginosa; planktonic, cutoff for positive-scoring molecules 3-fold increase, read-out: AK-based Prestwick Library Screening Results, P. aeruginosa (fold increase in extracellular AK activity)) was 0.6 and the fold induction at 50 µM (E. cloacae; planktonic, cutoff for positive-scoring molecules 3-fold increase, read-out: AK-based Prestwick Library Screening Results, E. cloacae (fold increase in extracellular AK activity)) was 0.7. The fold induction at 50 µM (E. coli; planktonic, cutoff for positive-scoring molecules 3-fold increase, read-out: AK-based Prestwick Library Screening Results, E. coli (fold increase in extracellular AK activity)) was 0.6.
With `Cc1ccccc1OCC(O)CO` (stereo not shown) [Mephenesin] the fold induction at 50 µM (E. faecium; 384-well format, cutoff for positive-scoring molecules 3-fold increase, read-out: AK-based Prestwick Library Screening Results, E. faecium (increase in extracellular AK activity)) was 1, the fold induction at 50 µM ([1]; 384-well format, cutoff for positive-scoring molecules 3-fold increase, read-out: AK-based Prestwick Library Screening Results, S. aureus (increase in extracellular AK activity)) was 0.8 and the fold induction at 50 µM (K. pneumoniae; 384-well format, cutoff for positive-scoring molecules 3-fold increase, read-out: AK-based Prestwick Library Screening Results, K. pneumoniae (increase in extracellular AK activity)) was 0.7. The fold induction at 50 µM ([2]; 384-well format, cutoff for positive-scoring molecules 3-fold increase, read-out: AK-based Prestwick Library Screening Results, A. baumannii (increase in extracellular AK activity)) was 0.8, the fold induction at 50 µM (P. aeruginosa; 384-well format, cutoff for positive-scoring molecules 3-fold increase, read-out: AK-based Prestwick Library Screening Results, P. aeruginosa (increase in extracellular AK activity)) was 0.6 and the fold induction at 50 µM (E. cloacae; 384-well format, cutoff for positive-scoring molecules 3-fold increase, read-out: AK-based Prestwick Library Screening Results, E. cloacae (increase in extracellular AK activity)) was 0.8. For the same compound, the fold induction at 50 µM (E. coli; 384-well format, cutoff for positive-scoring molecules 3-fold increase, read-out: AK-based Prestwick Library Screening Results, E. coli (increase in extracellular AK activity)) was 0.7.
`CCC1(c2ccccc2)NC(=O)N(C)C1=O` (stereo not shown) [Mephenytoin] was tested, and the fold induction at 50 µM (E. faecium; [10]) was 1, the fold induction at 50 µM [1, 11] was 1.1 and the fold induction at 50 µM (K. pneumoniae; [12]) was 1. The fold induction at 50 µM [2, 13] was 1.3, the fold induction at 50 µM (P. aeruginosa; [14]) was 1 and the fold induction at 50 µM (E. cloacae; [15]) was 1.3. The fold induction at 50 µM (E. coli; [16]) was 1.1.
`CCCNC(C)(C)COC(=O)c1ccccc1` [Meprylcaine hydrochloride] gave a fold induction at 50 µM (E. faecium; [10]) of 0.9, a fold induction at 50 µM [1, 11] of 0.6 and a fold induction at 50 µM (K. pneumoniae; [12]) of 0.7. The fold induction at 50 µM [2, 13] was 0.8, the fold induction at 50 µM (P. aeruginosa; [14]) was 0.9 and the fold induction at 50 µM (E. cloacae; [15]) was 0.8. The fold induction at 50 µM (E. coli; [16]) was 0.9.
